Laboratory results taken from US20190327974A1, “SYNERGISTS FOR IMPROVED PESTICIDES” (priority 2017, published 2019).

Legend:
Assay in all cases: Protease selectivity panel
Format in all cases: biochemical
Conditions in all cases: 100 μM compound, n = 2
DPP8 = molecular target: T1, DPP8 (Homo sapiens, UniProt Q6V1X1)
T1 construct: purchased ENZO
Protocol: (§1) Test compounds were dissolved in 100% DMSO to make 10 mM stock. Final compound concentration in assay is […]. Compounds were tested in duplicate wells at single concentration and the final concentration of DMSO in all assays was kept at 1%. Five reference compounds, AEBSF, Carfilzomib, Granzyme B Inhibitor II, Dec-RVKR-CMK, and Teneligliptin hydrobromide, were tested in an identical manner with 8 concentration points at 5× dilutions.

PSMB10 = molecular target: T2, PSMB10 (Homo sapiens, UniProt P40306)
T2 construct: purchased BOSTON-BIOCHEM
Protocol: as §1

tPA = molecular target: T3, tPA (Homo sapiens, UniProt P00750)
T3 construct: purchased R&D Systems
Protocol: as §1

Matriptase = molecular target: T4, Matriptase (Homo sapiens, UniProt Q9Y5Y6)
T4 construct: purchased R&D Systems
T4 sequence (Q9Y5Y6 1-855): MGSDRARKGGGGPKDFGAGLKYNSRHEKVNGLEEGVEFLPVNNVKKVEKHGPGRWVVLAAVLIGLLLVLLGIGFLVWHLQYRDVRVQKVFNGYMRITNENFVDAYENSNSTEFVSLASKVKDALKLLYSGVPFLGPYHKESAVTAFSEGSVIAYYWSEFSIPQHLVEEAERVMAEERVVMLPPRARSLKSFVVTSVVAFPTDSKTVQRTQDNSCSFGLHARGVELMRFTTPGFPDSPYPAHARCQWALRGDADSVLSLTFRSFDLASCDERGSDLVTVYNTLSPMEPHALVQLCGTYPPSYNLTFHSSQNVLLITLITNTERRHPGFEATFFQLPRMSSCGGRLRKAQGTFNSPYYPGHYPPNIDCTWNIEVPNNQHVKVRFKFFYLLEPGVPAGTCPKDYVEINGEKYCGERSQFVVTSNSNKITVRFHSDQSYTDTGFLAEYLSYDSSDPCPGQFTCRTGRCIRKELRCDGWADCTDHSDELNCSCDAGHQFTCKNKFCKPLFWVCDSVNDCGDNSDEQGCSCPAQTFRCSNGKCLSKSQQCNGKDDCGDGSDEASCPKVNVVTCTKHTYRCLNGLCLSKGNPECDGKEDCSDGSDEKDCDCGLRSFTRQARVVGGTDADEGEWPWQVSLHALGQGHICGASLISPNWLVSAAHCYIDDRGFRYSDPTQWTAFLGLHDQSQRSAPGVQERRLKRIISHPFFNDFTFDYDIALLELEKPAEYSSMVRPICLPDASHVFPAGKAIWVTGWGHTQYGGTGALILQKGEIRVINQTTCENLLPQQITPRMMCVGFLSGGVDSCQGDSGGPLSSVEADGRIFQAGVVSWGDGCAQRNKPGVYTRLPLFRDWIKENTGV
Protocol: as §1

DPP9 = molecular target: T5, DPP9 (Homo sapiens, UniProt Q86TI2)
T5 construct: purchased ENZO
Protocol: as §1

Plasmin = molecular target: T6, Plasmin (Homo sapiens, UniProt P00747)
T6 construct: purchased R&D Systems
Protocol: as §1

Factor-Xa = molecular target: T7, Factor-Xa (Homo sapiens, UniProt P00742)
T7 construct: Factor Xa; Calbiochem; B76791; purchased Calbiochem
Protocol: as §1

PSMB7 = molecular target: T8, PSMB7 (Homo sapiens, UniProt Q99436)
T8 construct: purchased BOSTON-BIOCHEM
Protocol: as §1

Thrombin = molecular target: T9, Thrombin (Homo sapiens, UniProt P00734)
T9 construct: Thrombin; purchased R&D Systems
Protocol: as §1

HTRA2 = molecular target: T10, HTRA2 (Homo sapiens, UniProt O43464)
T10 construct: purchased R&D Systems
T10 sequence (O43464 134-458): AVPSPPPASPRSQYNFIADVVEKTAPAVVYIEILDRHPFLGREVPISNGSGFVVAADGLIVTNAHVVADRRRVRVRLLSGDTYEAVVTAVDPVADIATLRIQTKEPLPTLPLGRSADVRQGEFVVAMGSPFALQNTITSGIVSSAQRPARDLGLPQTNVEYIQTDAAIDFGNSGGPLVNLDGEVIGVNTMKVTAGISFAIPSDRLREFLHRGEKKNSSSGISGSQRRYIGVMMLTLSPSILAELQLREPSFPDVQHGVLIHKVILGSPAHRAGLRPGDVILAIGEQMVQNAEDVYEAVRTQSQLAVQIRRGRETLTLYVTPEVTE
Protocol: as §1

Factor VII = molecular target: T11, Factor VII (Homo sapiens, UniProt P08709)
T11 construct: purchased R&D Systems
Protocol: as §1

GranzymeB = molecular target: T12, GranzymeB (Homo sapiens, UniProt P10144)
T12 construct: purchased ENZO
Protocol: as §1

uPA = molecular target: T13, uPA (Homo sapiens, UniProt P00749)
T13 construct: purchased R&D Systems
Protocol: as §1

Kallikrein13 = molecular target: T14, Kallikrein13 (Homo sapiens, UniProt Q9UKR3)
T14 construct: purchased R&D Systems
T14 sequence (Q9UKR3 26-277 limits assumed): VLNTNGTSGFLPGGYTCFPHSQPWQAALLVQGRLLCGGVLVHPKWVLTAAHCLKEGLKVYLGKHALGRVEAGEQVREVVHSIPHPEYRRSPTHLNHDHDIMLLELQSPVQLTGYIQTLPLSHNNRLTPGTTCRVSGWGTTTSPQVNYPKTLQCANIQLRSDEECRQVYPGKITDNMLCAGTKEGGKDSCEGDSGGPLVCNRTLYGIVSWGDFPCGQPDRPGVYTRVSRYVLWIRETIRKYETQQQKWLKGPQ
Protocol: as §1

GranzymeA = molecular target: T15, GranzymeA (Homo sapiens, UniProt P12544)
T15 construct: purchased ENZO
T15 sequence (P12544 29-262): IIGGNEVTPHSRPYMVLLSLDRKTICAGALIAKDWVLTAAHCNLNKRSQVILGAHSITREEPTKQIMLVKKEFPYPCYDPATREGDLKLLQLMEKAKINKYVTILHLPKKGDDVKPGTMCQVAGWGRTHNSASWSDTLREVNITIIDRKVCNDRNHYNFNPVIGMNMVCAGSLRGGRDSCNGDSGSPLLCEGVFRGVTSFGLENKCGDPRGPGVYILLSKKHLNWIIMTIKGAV
Protocol: as §1

PSMB9 = molecular target: T16, PSMB9 (Homo sapiens, UniProt P28065)
T16 construct: purchased BOSTON-BIOCHEM
Protocol: as §1

PSMB6 = molecular target: T17, PSMB6 (Homo sapiens, UniProt P28072)
T17 construct: purchased BOSTON-BIOCHEM
Protocol: as §1

Plasma-Kallikrein = molecular target: T18, Plasma-Kallikrein (Homo sapiens, UniProt P03952)
T18 construct: purchased R&D Systems
Protocol: as §1

T6 sequence (P00747 581-810 limits assumed): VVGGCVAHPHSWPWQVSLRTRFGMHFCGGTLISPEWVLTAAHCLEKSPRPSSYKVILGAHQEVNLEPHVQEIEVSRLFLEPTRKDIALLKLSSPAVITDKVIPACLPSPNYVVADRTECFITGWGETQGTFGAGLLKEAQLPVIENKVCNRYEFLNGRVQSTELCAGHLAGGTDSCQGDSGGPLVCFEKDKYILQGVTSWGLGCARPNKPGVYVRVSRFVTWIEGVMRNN
T6 sequence (P00747 97-580 partner limits assumed): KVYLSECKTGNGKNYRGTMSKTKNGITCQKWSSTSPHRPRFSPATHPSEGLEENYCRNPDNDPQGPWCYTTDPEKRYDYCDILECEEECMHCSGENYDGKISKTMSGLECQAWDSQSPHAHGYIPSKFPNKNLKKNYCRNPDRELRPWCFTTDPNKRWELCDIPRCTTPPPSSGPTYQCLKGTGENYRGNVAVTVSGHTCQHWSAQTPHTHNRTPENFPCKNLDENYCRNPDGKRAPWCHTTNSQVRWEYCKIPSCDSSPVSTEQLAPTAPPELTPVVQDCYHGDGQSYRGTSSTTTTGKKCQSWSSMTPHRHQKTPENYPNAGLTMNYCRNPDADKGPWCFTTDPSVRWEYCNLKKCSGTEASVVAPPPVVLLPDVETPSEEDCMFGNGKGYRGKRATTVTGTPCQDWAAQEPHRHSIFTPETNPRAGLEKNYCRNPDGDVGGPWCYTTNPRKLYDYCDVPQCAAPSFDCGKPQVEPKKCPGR
T3 sequence (P00750 36-562): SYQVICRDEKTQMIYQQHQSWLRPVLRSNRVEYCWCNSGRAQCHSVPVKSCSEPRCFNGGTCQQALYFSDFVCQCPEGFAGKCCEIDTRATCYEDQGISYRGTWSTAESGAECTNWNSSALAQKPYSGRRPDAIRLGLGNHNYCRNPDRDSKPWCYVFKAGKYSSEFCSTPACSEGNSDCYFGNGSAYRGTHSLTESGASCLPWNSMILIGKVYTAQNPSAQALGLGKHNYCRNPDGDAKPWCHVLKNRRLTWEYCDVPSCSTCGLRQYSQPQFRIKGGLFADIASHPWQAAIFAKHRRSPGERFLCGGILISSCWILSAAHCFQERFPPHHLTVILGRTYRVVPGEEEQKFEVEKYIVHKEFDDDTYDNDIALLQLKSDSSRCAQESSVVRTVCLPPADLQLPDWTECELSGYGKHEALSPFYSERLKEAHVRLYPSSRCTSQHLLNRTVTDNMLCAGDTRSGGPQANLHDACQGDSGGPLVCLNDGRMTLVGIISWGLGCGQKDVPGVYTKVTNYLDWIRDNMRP
T7 sequence (P00742 235-488 limits assumed): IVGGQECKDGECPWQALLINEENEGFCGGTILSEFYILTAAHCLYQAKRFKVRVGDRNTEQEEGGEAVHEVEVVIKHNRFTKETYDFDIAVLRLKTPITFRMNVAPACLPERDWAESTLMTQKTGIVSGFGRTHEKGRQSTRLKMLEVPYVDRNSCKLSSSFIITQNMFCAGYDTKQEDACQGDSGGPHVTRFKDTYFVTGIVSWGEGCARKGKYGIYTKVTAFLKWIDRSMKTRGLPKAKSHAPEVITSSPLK
T7 sequence (P00742 41-179 partner limits assumed): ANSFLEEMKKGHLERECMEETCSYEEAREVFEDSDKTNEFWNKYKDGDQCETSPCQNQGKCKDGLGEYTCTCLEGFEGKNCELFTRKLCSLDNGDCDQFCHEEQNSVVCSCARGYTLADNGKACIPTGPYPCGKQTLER
T18 sequence (P03952 20-638): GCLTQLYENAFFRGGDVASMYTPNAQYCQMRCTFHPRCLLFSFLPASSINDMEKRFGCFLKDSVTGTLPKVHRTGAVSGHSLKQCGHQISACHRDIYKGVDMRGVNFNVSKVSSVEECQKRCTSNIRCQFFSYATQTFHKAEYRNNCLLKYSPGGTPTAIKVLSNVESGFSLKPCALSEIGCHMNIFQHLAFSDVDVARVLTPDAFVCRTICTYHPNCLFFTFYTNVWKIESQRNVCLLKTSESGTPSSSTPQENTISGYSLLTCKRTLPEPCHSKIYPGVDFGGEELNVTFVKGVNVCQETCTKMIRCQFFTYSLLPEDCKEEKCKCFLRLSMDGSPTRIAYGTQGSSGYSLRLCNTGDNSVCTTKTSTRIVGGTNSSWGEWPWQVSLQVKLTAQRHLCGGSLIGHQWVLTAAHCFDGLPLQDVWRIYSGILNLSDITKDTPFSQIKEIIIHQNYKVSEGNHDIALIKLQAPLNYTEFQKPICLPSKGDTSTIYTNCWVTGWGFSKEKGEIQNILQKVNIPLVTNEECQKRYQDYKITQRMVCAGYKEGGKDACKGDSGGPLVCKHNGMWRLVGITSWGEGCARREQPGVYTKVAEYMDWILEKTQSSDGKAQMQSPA
T5 sequence (Q86TI2 whole entry): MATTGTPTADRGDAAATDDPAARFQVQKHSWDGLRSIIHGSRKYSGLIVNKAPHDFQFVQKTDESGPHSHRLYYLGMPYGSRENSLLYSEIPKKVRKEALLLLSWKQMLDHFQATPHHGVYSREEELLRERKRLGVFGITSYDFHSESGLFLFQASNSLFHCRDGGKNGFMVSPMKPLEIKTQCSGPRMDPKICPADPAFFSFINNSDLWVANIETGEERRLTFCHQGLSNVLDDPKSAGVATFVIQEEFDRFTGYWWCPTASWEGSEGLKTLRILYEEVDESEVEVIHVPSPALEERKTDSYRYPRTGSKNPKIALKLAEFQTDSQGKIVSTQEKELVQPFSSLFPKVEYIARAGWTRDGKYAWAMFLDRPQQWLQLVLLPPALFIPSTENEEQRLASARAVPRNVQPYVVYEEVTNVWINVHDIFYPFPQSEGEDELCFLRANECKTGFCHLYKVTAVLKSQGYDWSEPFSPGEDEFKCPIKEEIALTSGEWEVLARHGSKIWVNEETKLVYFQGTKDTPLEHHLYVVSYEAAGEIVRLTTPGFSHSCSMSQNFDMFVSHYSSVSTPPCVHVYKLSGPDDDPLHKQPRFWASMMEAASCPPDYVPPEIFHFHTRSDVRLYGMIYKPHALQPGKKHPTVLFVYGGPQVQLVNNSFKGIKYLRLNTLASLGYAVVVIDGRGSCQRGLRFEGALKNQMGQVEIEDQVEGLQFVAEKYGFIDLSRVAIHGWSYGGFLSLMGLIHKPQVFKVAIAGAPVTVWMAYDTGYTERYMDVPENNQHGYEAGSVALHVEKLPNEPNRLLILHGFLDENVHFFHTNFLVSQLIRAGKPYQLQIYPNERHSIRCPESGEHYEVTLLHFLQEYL
T1 sequence (Q6V1X1 whole entry): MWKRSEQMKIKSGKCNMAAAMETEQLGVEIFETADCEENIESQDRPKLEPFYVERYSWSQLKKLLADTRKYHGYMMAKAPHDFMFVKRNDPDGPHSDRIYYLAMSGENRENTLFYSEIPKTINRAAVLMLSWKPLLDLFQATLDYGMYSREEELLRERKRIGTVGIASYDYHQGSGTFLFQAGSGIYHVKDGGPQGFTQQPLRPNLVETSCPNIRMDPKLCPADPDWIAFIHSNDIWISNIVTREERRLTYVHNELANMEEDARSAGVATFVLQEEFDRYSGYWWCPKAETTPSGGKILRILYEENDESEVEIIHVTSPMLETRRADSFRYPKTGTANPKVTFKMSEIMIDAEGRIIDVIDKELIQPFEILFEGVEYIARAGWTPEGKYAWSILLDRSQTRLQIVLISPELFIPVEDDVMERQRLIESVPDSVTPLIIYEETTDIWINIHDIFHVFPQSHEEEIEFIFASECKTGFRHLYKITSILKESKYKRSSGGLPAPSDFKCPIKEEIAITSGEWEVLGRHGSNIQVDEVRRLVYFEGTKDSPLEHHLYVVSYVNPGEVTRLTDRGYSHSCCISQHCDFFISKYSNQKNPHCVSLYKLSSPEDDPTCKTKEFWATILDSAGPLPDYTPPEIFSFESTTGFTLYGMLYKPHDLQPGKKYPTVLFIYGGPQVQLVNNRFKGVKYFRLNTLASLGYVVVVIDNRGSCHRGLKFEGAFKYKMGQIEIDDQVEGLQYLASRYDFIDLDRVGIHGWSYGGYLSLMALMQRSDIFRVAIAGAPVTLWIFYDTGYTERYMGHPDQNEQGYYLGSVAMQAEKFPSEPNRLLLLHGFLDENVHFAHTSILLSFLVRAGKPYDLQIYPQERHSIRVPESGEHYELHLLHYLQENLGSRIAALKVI
T12 sequence (P10144 21-247): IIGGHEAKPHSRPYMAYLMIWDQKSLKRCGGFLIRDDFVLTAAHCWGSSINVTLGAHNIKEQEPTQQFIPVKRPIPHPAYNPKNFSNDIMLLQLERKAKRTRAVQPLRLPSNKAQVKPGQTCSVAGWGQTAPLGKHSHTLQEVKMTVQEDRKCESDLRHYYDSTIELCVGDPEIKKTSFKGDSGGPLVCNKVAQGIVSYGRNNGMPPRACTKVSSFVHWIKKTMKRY
T11 sequence (P08709 213-466 limits assumed): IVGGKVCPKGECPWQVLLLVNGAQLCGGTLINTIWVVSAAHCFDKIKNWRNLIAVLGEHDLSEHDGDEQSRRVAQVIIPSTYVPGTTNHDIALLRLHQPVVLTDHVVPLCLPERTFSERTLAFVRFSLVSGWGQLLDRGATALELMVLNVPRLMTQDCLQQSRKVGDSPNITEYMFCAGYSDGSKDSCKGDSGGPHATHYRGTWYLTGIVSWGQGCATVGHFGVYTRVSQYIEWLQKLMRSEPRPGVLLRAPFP
T11 sequence (P08709 61-212 partner limits assumed): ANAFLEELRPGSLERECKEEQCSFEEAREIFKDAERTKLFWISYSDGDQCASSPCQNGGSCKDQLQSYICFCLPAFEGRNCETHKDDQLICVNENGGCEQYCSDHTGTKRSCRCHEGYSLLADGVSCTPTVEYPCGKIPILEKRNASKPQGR
T11 sequence (P13726 33-251 partner limits assumed): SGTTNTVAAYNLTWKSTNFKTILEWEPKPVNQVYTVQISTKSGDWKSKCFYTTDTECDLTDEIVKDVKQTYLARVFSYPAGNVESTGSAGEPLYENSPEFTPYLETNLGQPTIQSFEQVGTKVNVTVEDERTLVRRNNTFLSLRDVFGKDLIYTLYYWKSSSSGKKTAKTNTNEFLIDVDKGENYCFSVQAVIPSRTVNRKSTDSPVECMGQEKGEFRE

Structure (SMILES): OB(O)c1cc(Br)cc(OCc2ccccc2)c1 [Compound 3.9]
- inhibition at 100 µM (DPP8): 53%
- inhibition at 100 µM (PSMB10): 78%
- inhibition at 100 µM (tPA): 40%
- inhibition at 100 µM (Matriptase): 5%
- inhibition at 100 µM (DPP9): 75%
- inhibition at 100 µM (Plasmin): 16%
- inhibition at 100 µM (Factor-Xa): 26%
- inhibition at 100 µM (PSMB7): 70%
- inhibition at 100 µM (Thrombin): 54%
- inhibition at 100 µM (HTRA2): 28%
- inhibition at 100 µM (Factor VII): 26%
- inhibition at 100 µM (GranzymeB): 17%
- inhibition at 100 µM (uPA): 40%
- inhibition at 100 µM (Kallikrein13): -1%
- inhibition at 100 µM (GranzymeA): 23%
- inhibition at 100 µM (PSMB9): 50%
- inhibition at 100 µM (PSMB6): 54%
- inhibition at 100 µM (Plasma-Kallikrein): 41%

Structure (SMILES): OB(O)c1cc(Br)cc(Oc2ccccc2)c1 [Compound 3.10, 3-Bromo-5-phenoxyfenylboronic acid]
- inhibition at 100 µM (DPP8): 37%
- inhibition at 100 µM (PSMB10): 45%
- inhibition at 100 µM (tPA): 19%
- inhibition at 100 µM (Matriptase): 4%
- inhibition at 100 µM (DPP9): 71%
- inhibition at 100 µM (Plasmin): -2%
- inhibition at 100 µM (Factor-Xa): 35%
- inhibition at 100 µM (PSMB7): 48%
- inhibition at 100 µM (Thrombin): 58%
- inhibition at 100 µM (HTRA2): 2%
- inhibition at 100 µM (Factor VII): 53%
- inhibition at 100 µM (GranzymeB): 11%
- inhibition at 100 µM (uPA): 32%
- inhibition at 100 µM (Kallikrein13): 0%
- inhibition at 100 µM (GranzymeA): 12%
- inhibition at 100 µM (PSMB9): 15%
- inhibition at 100 µM (PSMB6): 27%
- inhibition at 100 µM (Plasma-Kallikrein): 64%

Structure (SMILES): OB(O)c1cc(Br)cc(N2CCCC2)c1 [Compound 3]
- inhibition at 100 µM (DPP8): 42%
- inhibition at 100 µM (PSMB10): 43%
- inhibition at 100 µM (tPA): 26%
- inhibition at 100 µM (Matriptase): -1%
- inhibition at 100 µM (DPP9): 45%
- inhibition at 100 µM (Plasmin): 13%
- inhibition at 100 µM (Factor-Xa): 53%
- inhibition at 100 µM (PSMB7): 39%
- inhibition at 100 µM (Thrombin): 32%
- inhibition at 100 µM (HTRA2): 23%
- inhibition at 100 µM (Factor VII): 15%
- inhibition at 100 µM (GranzymeB): 3%
- inhibition at 100 µM (uPA): 67%
- inhibition at 100 µM (Kallikrein13): 3%
- inhibition at 100 µM (GranzymeA): 12%
- inhibition at 100 µM (PSMB9): 12%
- inhibition at 100 µM (PSMB6): 16%
- inhibition at 100 µM (Plasma-Kallikrein): 6%
